{"source": "paper PMC9639148", "about": "(Journal for Immunotherapy of Cancer, 2022)", "key": {"[1]": {"experiment": "In vivo toxicity analysis, 4-NQO-induced ESCC mice", "design": "species or system mouse"}, "[2]": {"test_system": "CD8^+ T cells", "experiment": "Activated human PBMCs directly treated", "format": "cell-based", "conditions": "10 µM for 3 days"}, "[3]": {"conditions": "0.5, 2 and 8 mg/kg i.p. every 2 days for 2 weeks"}, "[4]": {"test_system": "PD-L1 in RKO cell", "experiment": "PD-L1 expression by flow cytometry, RKO", "format": "cell-based, human", "conditions": "48 hours"}, "[5]": {"test_system": "KYSE150-vector cells", "experiment": "MST within KYSE150-vector cells"}, "[6]": {"target": "T1, APOBEC3A (Homo sapiens, UniProt P31941)", "T1 sequence (P31941 whole entry)": "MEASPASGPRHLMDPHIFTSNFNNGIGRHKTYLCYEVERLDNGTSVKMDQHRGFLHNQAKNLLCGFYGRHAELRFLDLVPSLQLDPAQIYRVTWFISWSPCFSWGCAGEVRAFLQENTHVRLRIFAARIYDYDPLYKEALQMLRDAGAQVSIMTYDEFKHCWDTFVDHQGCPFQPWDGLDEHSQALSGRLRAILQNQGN", "experiment": "biochemical", "conditions": "read-out: inhibition rate of APOBEC3A deaminase activity"}, "[7]": {"test_system": "CD8^+ T cells", "experiment": "Coculture assay: PBMCs cultured in supernatants of KYSE70 cells", "format": "cell-based, human", "conditions": "supernatants of KYSE70 cells pretreated with 10 µM for 48 hours, PBMCs 3 days"}, "[8]": {"test_system": "IFN-γ^+CD8^+ T cells", "experiment": "Ex vivo intracellular cytokine staining, 4-NQO-induced ESCC mice", "format": "in vivo, mouse", "conditions": "0.5 mg/kg each i.p."}, "[9]": {"target": "T2, APOBEC3B (Homo sapiens, UniProt Q9UH17)", "T2 sequence (Q9UH17 whole entry)": "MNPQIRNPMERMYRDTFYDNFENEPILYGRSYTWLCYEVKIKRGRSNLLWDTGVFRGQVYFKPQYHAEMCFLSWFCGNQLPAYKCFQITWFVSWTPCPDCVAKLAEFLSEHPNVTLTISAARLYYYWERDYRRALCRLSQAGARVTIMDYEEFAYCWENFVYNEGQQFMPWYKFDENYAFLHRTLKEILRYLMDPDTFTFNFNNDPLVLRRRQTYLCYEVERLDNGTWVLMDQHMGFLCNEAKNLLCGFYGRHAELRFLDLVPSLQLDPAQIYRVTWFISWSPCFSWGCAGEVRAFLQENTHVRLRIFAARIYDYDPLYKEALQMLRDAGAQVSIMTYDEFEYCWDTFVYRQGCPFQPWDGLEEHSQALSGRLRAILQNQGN", "experiment": "Microscale thermophoresis", "format": "binding"}, "[10]": {"target": "T2, APOBEC3B", "format": "biochemical"}, "[11]": {"target": "T2, APOBEC3B", "experiment": "Fluorescence-based ssDNA cytosine deamination assay", "format": "biochemical", "conditions": "IC50, dose-dependent assay, figure 2D, E"}, "[12]": {"test_system": "PD-L1 in KYSE70 cell", "experiment": "PD-L1 expression by flow cytometry, KYSE70", "format": "cell-based, human", "conditions": "10 µM and 100 µM, 48 hours"}, "[13]": {"test_system": "APOBEC3", "experiment": "Mouse whole exome sequencing of esophagus tissues", "format": "in vivo"}, "[14]": {"test_system": "4-NQO-induced ESCC", "experiment": "4-NQO-induced spontaneous ESCC mouse model", "format": "in vivo"}, "[15]": {"test_system": "IL-15", "experiment": "ELISA, IL-15 in KYSE70 supernatants", "format": "cell-based, human", "conditions": "10 µM, 48 hours, vs vehicle supernatants"}, "[16]": {"test_system": "APOBEC3B overexpressed E. coli", "experiment": "Bacterial resequencing", "format": "cell-based, Escherichia coli", "conditions": "2 µM for 3 days"}, "[17]": {"test_system": "KYSE70 cells", "experiment": "Cell viability assay", "format": "cell-based, human", "conditions": "0.01-100 μM, MTT"}, "[18]": {"test_system": "IFN-γ^+CD8^+ T cells", "experiment": "Ex vivo intracellular cytokine staining, AOM/DSS-induced colon cancer mice", "format": "in vivo, mouse", "conditions": "0.5 mg/kg each i.p."}, "[19]": {"test_system": "APOBEC3B", "experiment": "qRT-PCR of APOBEC3B mRNA in KYSE70 cells", "format": "cell-based, human", "conditions": "48 hours"}, "[20]": {"target": "T3, APOBEC3G (Homo sapiens, UniProt Q9HC16)", "T3 sequence (Q9HC16 whole entry)": "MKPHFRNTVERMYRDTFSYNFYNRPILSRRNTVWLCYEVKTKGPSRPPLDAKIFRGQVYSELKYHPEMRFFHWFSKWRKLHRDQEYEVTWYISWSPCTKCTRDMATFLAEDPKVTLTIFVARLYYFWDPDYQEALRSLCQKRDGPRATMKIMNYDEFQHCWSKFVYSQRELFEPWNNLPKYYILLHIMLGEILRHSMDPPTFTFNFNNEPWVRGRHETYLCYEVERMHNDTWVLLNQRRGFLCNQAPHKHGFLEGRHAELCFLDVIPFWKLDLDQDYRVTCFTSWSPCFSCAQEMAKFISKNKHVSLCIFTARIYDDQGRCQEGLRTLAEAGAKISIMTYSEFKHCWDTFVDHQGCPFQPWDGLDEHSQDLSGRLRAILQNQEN", "experiment": "MST, APOBEC3G protein", "format": "binding"}, "[21]": {"experiment": "Thyroid function in vivo, naive C57BL/6J mice", "design": "species or system mouse", "conditions": "0.5, 2 and 8 mg/kg i.p. every 2 days for 2 weeks, vs NS group"}, "[22]": {"test_system": "IL-7", "experiment": "ELISA, IL-7 in KYSE70 supernatants", "format": "cell-based, human", "conditions": "10 µM, 48 hours, vs vehicle supernatants; IL-7 expression level was too low"}, "[23]": {"test_system": "IL-7 and IL-15", "experiment": "qRT-PCR of IL-7 and IL-15 in KYSE70 cells", "format": "cell-based, human", "conditions": "10 µM"}, "[24]": {"target": "T3, APOBEC3G", "experiment": "biochemical", "conditions": "read-out: inhibition rate of APOBEC3G deaminase activity"}, "[25]": {"test_system": "AOM/DSS-induced colon cancer", "experiment": "AOM/DSS-induced spontaneous colon cancer mouse model", "format": "in vivo"}, "[26]": {"target": "KYSE150-APOBEC3B cells (Homo sapiens, UniProt Q9UH17)", "sequence (Q9UH17 whole entry)": "as the sequence (Q9UH17 whole entry) above", "experiment": "MST within KYSE150-APOBEC3B cells", "format": "binding"}, "[27]": {"target": "T1, APOBEC3A", "experiment": "MST, APOBEC3A protein", "format": "binding"}, "[28]": {"test_system": "CD8^+ T cells", "experiment": "Activated PBMCs cocultured with KYSE70 cells", "format": "cell-based, human", "conditions": "10 µM, coculture with KYSE70 cells"}, "[29]": {"test_system": "CD8+ T cells", "experiment": "T cell migration assay", "format": "cell-based, human", "conditions": "supernatant of KYSE70 pretreated with 10 μM for 48 hours"}, "[30]": {"experiment": "In vivo toxicity analysis, AOM/DSS-induced colon cancer mice", "design": "species or system mouse", "conditions": "0.5 mg/kg each i.p."}, "[31]": {"test_system": "HET-1A cells", "experiment": "Cell viability assay", "format": "cell-based, human", "conditions": "MTT, 24, 48 and 72 hours"}, "[32]": {"test_system": "KYSE70 cells", "experiment": "Transcriptome sequencing of KYSE70 cells", "format": "cell-based, human", "conditions": "10 µM for 48 hours"}, "[33]": {"conditions": "both low (0.5 mg/kg) and high dose (2 mg/kg) i.p."}}}
{"smiles": "N[C@@H](Cc1cc(I)c(O)c(I)c1)C(=O)O", "note": "[SMC247, 3,5-diiodotyrosine]", "values": [{"measurement": "AST and ALT in serum", "setting": "[1]; 0.5 mg/kg vs NS group", "result": "no significant differences"}, {"measurement": "H&E staining of main viscera", "setting": "[1]; heart, liver, spleen, lung, kidney", "result": "no obvious toxic effects"}, {"measurement": "function of CD8^+ T cells in the absence of tumor cells", "setting": "[2]", "result": "did not directly affect the function of CD8^+ T cells"}, {"measurement": "blood routine indexes (WBC, HGB, PLT, RBC) and blood biochemical (AST and ALT) indexes", "setting": "[3]", "result": "within the normal range"}, {"measurement": "expression of PD-L1", "setting": "[4]", "result": "up-regulate"}, {"measurement": "affinity to KYSE150-vector cells", "setting": "[5]", "result": "no affinity"}, {"measurement": "inhibition at 100 µM", "setting": "[6]", "result": "< 50", "unit": "%"}, {"measurement": "promotion effect on CD8^+ T cells", "setting": "[7]", "result": "still existed"}, {"measurement": "proportions of IFN-γ^+CD8^+ T cells in both spleen and lymph node", "setting": "[8]", "result": "increased"}, {"measurement": "Kd", "setting": "[9]", "result": 65, "unit": "nM"}, {"measurement": "deaminase activity of APOBEC3B", "setting": "[10]", "result": "significantly inhibited"}, {"measurement": "product amount", "setting": "[10]", "result": "reduced in a dose-dependent manner"}, {"measurement": "IC50", "setting": "[11]", "result": 1690, "unit": "nM"}, {"measurement": "expression of PD-L1", "setting": "[12]", "result": "up-regulate"}, {"measurement": "C>A mutation type", "setting": "[13]; 0.5 mg/kg i.p.", "result": "reduction"}, {"measurement": "contribution of APOBEC activity related signatures (SBS2 and SBS13)", "setting": "[13]; 0.5 mg/kg i.p.", "result": "weakened"}, {"measurement": "mutation counts of C>T and C>G", "setting": "[13]; 0.5 mg/kg i.p.", "result": "reduced"}, {"measurement": "number of mutations at exome levels", "setting": "[13]; 0.5 mg/kg i.p. every 2 days for 2 weeks, vs NS", "result": "significantly reduced"}, {"measurement": "number and length of ESCC tumor tissue", "setting": "[14]; 0.5 mg/kg or 2 mg/kg i.p. every 2 days for 2 weeks, vs NS", "result": "significantly reduced"}, {"measurement": "body weight", "setting": "[14]; [33]", "result": "slow down the loss trend of body weight"}, {"measurement": "overall survival of mice", "setting": "[14]; [33]", "result": "significantly prolong"}, {"measurement": "H&E of esophagus tissues", "setting": "[14]; combination study", "result": "effectively alleviated"}, {"measurement": "number and length of ESCC tumor tissues", "setting": "[14]; combination study, 0.5 mg/kg each i.p. every 2 days for 2 weeks", "result": "significantly reduced"}, {"measurement": "secretion level of IL-15", "setting": "[15]", "result": "significantly greater"}, {"measurement": "C>T transversion driven by APOBEC3B in E. coli genome", "setting": "[16]", "result": "significant reduced"}, {"measurement": "proliferation of KYSE70 cells", "setting": "[17]", "result": "could not inhibit the proliferation"}, {"measurement": "proportions of IFN-γ^+CD8^+ T cells in both spleen and lymph node", "setting": "[18]", "result": "increased"}, {"measurement": "expression of APOBEC3B", "setting": "[19]", "result": "down-regulated"}, {"measurement": "binding to APOBEC3G", "setting": "[20]", "result": "weakly bound"}, {"measurement": "thyroid-stimulating hormone, free triiodothyronine (fT3) and free thyroxine (fT4)", "setting": "[21]", "result": "no significant difference"}, {"measurement": "secretion level of IL-7", "setting": "[22]", "result": "significantly greater"}, {"measurement": "IL-7 and IL-15 expression levels (qRT-PCR)", "setting": "[23]", "result": "consistent with the above sequencing results"}, {"measurement": "inhibition at 100 µM", "setting": "[24]", "result": "< 50", "unit": "%"}, {"measurement": "H&E of colon tissue", "setting": "[25]; 0.5 mg/kg each i.p.", "result": "the colonic mucosa was intact and the glandular cells were basically arranged in order"}, {"measurement": "disease activity index (DAI)", "setting": "[25]; 0.5 mg/kg each i.p.", "result": "decreased"}, {"measurement": "length of colon", "setting": "[25]; 0.5 mg/kg each i.p.", "result": "without changing the length of colon basically"}, {"measurement": "number and size of tumors in colonic epithelial tissues", "setting": "[25]; 0.5 mg/kg each i.p.", "result": "significantly reduced"}, {"measurement": "body weight loss", "setting": "[25]; 0.5 mg/kg each i.p. every 2 days for 9 weeks", "result": "significantly slow down the trend of body weight loss"}, {"measurement": "enteritis phenomenon", "setting": "[25]; mouse, in vivo", "result": "significantly relieved"}, {"measurement": "Kd", "setting": "[26]", "result": "6140 ± 7930", "unit": "nM"}, {"measurement": "binding to APOBEC3A", "setting": "[27]", "result": "weakly bound"}, {"measurement": "proliferation of CD8^+ T cells and proportion of IFN-γ^+CD8^+ T cells", "setting": "[28]", "result": "promoted"}, {"measurement": "migration of CD8^+ T cells", "setting": "[29]", "result": "could not promote the migration"}, {"measurement": "toxic effects (H&E of organs, AST and ALT)", "setting": "[30]", "result": "no obvious toxic effects"}, {"measurement": "viability of HET-1A cells", "setting": "[31]", "result": "did not affect the viability"}, {"measurement": "IL-7 and IL-15 expression (transcriptome sequencing)", "setting": "[32]", "result": "significantly upregulated"}]}
